Patent publication US10174016B2 (BAYER AKTIENGESELLSCHAFT, priority 2014, dated 2019)

How the values were obtained:
human P2X2/3 receptor = human P2X2/3 receptor (Homo sapiens (Human), UniProt P56373+Q9UBL9); assay: Intracellular calcium measurement (FLIPR, Fluo-4) of antagonist activity at human P2X2/3 receptors; format: cell-based; conditions: human P2X2/3, FLIPR calcium assay, agonist α,β-Me-ATP; read-out: hP2X2/3 IC50
Summary of the method: (§1)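 Cells expressing human P2X3 or P2X2/3, loaded with Fluo-4, preincubated 30 min at 37° C. with compound (1% DMSO final), then challenged with α,β-Me-ATP at its EC80. Peak FLIPR fluorescence over 90 sec gave % response; IC50, maximal inhibition and Hill slope from triplicates.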

human P2X3 receptor = human P2X3 receptor (Homo sapiens (Human), UniProt P56373); assay: Intracellular calcium measurement (FLIPR, Fluo-4) of antagonist activity at human P2X3 receptors; format: cell-based; conditions: human P2X3, FLIPR calcium assay, agonist α,β-Me-ATP; read-out: hP2X3 IC50
Chain of human P2X3 receptor (P56373 whole entry): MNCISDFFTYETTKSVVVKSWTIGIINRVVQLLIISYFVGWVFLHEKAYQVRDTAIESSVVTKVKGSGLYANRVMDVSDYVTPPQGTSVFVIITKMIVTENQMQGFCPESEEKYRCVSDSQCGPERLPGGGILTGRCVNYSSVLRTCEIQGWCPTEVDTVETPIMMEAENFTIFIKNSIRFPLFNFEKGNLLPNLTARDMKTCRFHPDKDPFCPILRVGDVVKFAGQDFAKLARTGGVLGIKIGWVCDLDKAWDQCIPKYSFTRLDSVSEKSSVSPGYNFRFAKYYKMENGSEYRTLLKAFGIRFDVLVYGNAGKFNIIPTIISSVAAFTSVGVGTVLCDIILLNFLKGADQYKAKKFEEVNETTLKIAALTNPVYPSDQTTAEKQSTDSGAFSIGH
Summary of the method: as §1

Chain of human P2X2/3 receptor (P56373 whole entry): as above
Chain of human P2X2/3 receptor (Q9UBL9 whole entry): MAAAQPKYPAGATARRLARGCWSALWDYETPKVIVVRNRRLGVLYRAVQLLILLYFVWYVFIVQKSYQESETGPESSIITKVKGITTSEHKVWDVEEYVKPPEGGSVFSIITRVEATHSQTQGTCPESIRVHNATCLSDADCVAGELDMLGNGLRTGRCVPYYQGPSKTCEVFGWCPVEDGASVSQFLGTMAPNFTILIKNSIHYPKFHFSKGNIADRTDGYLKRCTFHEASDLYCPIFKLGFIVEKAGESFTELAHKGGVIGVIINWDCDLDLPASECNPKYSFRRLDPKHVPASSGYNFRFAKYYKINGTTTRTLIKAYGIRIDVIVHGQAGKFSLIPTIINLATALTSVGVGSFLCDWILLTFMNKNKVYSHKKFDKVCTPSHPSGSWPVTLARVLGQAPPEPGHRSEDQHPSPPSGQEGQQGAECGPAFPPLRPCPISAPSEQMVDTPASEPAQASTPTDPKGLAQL

For `Cc1cnc([C@@H](C)NC(=O)c2cc(OC[C@@H]3CCOC3)cc(-c3ncc(C)s3)c2)cn1` [Example 74, N-[(1R)-1-(5-Methylpyrazin-2-yl)ethyl]-3-(5-methyl-1,3-thiazol-2-yl)-5-[(3R)-tetrahydrofuran-3-ylmethoxy]benzamide], the IC50 (human P2X2/3 receptor) was 1110 nM and the IC50 (human P2X3 receptor) was 14 nM.
`Cc1ccc(CNC(=O)c2cc(OC[C@@H]3CCOC3)cc(-c3ncc(C)s3)c2)nn1` [Example 75, N-[(6-Methylpyridazin-3-yl)methyl]-3-(5-methyl-1,3-thiazol-2-yl)-5-[(3R)-tetrahydrofuran-3-ylmethoxy]benzamide] showed an IC50 (human P2X2/3 receptor) of 6640 nM and an IC50 (human P2X3 receptor) of 38 nM.
Work on `Cc1cnc(CNC(=O)c2cc(OC[C@@H]3CCOC3)cc(-c3ncc(C)s3)c2)cn1` [Example 76, N-[(5-Methylpyrazin-2-yl)methyl]-3-(5-methyl-1,3-thiazol-2-yl)-5-[(3R)-tetrahydrofuran-3-ylmethoxy]benzamide] yielded an IC50 (human P2X2/3 receptor) of 5790 nM and an IC50 (human P2X3 receptor) of 201 nM.
`Cc1ccc([C@@H](C)NC(=O)c2cc(OC[C@@H]3CCOC3)cc(-c3ncc(C)s3)c2)nn1` [Example 77, N-[(1R)-1-(6-Methylpyridazin-3-yl)ethyl]-3-(5-methyl-1,3-thiazol-2-yl)-5-[(3R)-tetrahydrofuran-3-ylmethoxy]benzomide] gave an IC50 (human P2X2/3 receptor) of 183 nM and an IC50 (human P2X3 receptor) of 10 nM.
`Cc1cnc(-c2cc(OC[C@@H]3CCOC3)cc(C(=O)NC(C)c3ncc(Cl)cc3F)c2)s1` (stereo partly drawn) [Example 78, N-[1-(5-Chloro-3-fluoropyridin-2-yl)ethyl]-3-(5-methyl-1,3-thiazol-2-yl)-5-[(3R)-tetrahydrofuran-3-ylmethoxy]benzamide] was tested, and the IC50 (human P2X2/3 receptor) was 83 nM and the IC50 (human P2X3 receptor) was 6 nM.
Compound `Cc1cnc(-c2cc(OC[C@@H]3CCOC3)cc(C(=O)N[C@H](C)c3ccc(C(F)(F)F)nn3)c2)s1` [Example 79, 3-(5-Methyl-1,3-thiazol-2-yl)-5-[(3R)-tetrahydrofuran-3-ylmethoxy]-N-[(1R)-1-[6-(trifluoromethyl)pyridazin-3-yl]ethyl]benzamide] has an IC50 (human P2X2/3 receptor) of 413 nM and an IC50 (human P2X3 receptor) of 9 nM.
In the case of `Cc1cnc(-c2cc(OC3CCOCC3)cc(C(=O)NC(C)c3ncc(F)cc3Cl)c2)s1` (centres unmarked) [Example 80, N-[1-(3-Chloro-5-fluoropyridin-2-yl)ethyl]-3-(5-methyl-1,3-thiazol-2-yl)-5-(tetrahydro-2H-pyran-4-yloxy)benzamide], the IC50 (human P2X2/3 receptor) is reported as 339 nM and the IC50 (human P2X3 receptor) is reported as 12 nM.
`Cc1cnc(-c2cc(OC3CCOCC3)cc(C(=O)NC(C)c3ncc(Cl)cc3F)c2)s1` (centres unmarked) [Example 81, N-[1-(5-Chloro-3-fluoropyridin-2-yl)ethyl]-3-(5-methyl-1,3-thiazol-2-yl)-5-(tetrahydro-2H-pyran-4-yloxy)benzamide] gave an IC50 (human P2X2/3 receptor) of 34 nM and an IC50 (human P2X3 receptor) of 3 nM.
In the case of `Cc1ccc(CNC(=O)c2cc(OC3CCOCC3)cc(-c3ncc(C)s3)c2)nn1` [Example 82, N-[(6-Methylpyridazin-3-yl)methyl]-3-(5-methyl-1,3-thiazol-2-yl)-5-(tetrahydro-2H-pyran-4-yloxy)benzamide], the IC50 (human P2X2/3 receptor) is reported as 380 nM and the IC50 (human P2X3 receptor) is reported as 28 nM.
`Cc1cnc(CNC(=O)c2cc(OC3CCOCC3)cc(-c3ncc(C)s3)c2)cn1` [Example 83, N-[(5-Methylpyrazin-2-yl)methyl]-3-(5-methyl-1,3-thiazol-2-yl)-5-(tetrahydro-2H-pyran-4-yloxy)benzamide] was tested, and the IC50 (human P2X2/3 receptor) was 1160 nM and the IC50 (human P2X3 receptor) was 125 nM.
`Cc1cnc(-c2cc(OC3CCOCC3)cc(C(=O)N[C@H](C)c3cnc(C(F)(F)F)nc3)c2)s1` [Example 85, 3-(5-Methyl-1,3-thiazol-2-yl)-5-(tetrahydro-2H-pyran-4-yloxy)-N-{(1R)-1-[2-(trifluoromethyl)pyrimidin-5-yl]ethyl}benzamide] was tested, and the IC50 (human P2X2/3 receptor) was 36 nM and the IC50 (human P2X3 receptor) was 10 nM.
`COc1ccc([C@@H](C)NC(=O)c2cc(OC3CCOCC3)cc(-c3ncc(C)s3)c2)cn1` [Example 86, N-[(1R)-1-(6-Methoxypyridin-3-yl)ethyl]-3-(5-methyl-1,3-thiazol-2-yl)-5-(tetrahydro-2H-pyran-4-yloxy)benzamide] gave an IC50 (human P2X2/3 receptor) of 144 nM and an IC50 (human P2X3 receptor) of 12 nM.
`Cc1ccc([C@@H](C)NC(=O)c2cc(OC3CCOCC3)cc(-c3ncc(C)s3)c2)nn1` [Example 87, N-[(1R)-1-(6-Methylpyridazin-3-yl)ethyl]-3-(5-methyl-1,3-thiazol-2-yl)-5-(tetrahydro-2H-pyran-4-yloxy)benzamide] gave an IC50 (human P2X2/3 receptor) of 119 nM and an IC50 (human P2X3 receptor) of 15 nM.
For `COc1ccc(CNC(=O)c2cc(OC3CCOCC3)cc(-c3ncc(C)s3)c2)nn1` [Example 88, N-[(6-Methoxypyridazin-3-yl)methyl]-3-(5-methyl-1,3-thiazol-2-yl)-5-(tetrahydro-2H-pyran-4-yloxy)benzamide], the IC50 (human P2X2/3 receptor) was 217 nM and the IC50 (human P2X3 receptor) was 30 nM.
In the case of `CC[C@@H](NC(=O)c1cc(OC2CCOCC2)cc(-c2ncc(C)s2)c1)c1cnc(C(F)(F)F)nc1` [Example 90, 3-(5-Methyl-1,3-thiazol-2-yl)-5-(tetrahydro-2H-pyran-4-yloxy)-N-{(1R)-1-[2-(trifluoromethyl)pyrimidin-5-yl]propyl}benzamide], the IC50 (human P2X2/3 receptor) is reported as 710 nM and the IC50 (human P2X3 receptor) is reported as 111 nM.
Compound `Cc1ccc([C@@H](C)NC(=O)c2cc(OC3CCOCC3)cc(-c3ncc(C)s3)c2)cn1` [Example 91, N-[(1R)-1-(6-Methylpyridin-3-yl)ethyl]-3-(5-methyl-1,3-thiazol-2-yl)-5-(tetrahydro-2H-pyran-4-yloxy)benzamide] has an IC50 (human P2X2/3 receptor) of 133 nM and an IC50 (human P2X3 receptor) of 19 nM.
`Cc1cnc(-c2cc(OC3CCOCC3)cc(C(=O)N[C@H](C)c3nnc(C)s3)c2)s1` [Example 92, N-[(1R)-1-(5-Methyl-1,3,4-thiadiazol-2-yl)ethyl]-3-(5-methyl-1,3-thiazol-2-yl)-5-(tetrahydro-2H-pyran-4-yloxy)benzamide] was tested, and the IC50 (human P2X2/3 receptor) was 317 nM and the IC50 (human P2X3 receptor) was 24 nM.
For `Cc1ccc(CNC(=O)c2cc(OCC3CCOCC3)cc(-c3ncc(C)s3)c2)nn1` [Example 93, N-[(6-Methylpyridazin-3-yl)methyl]-3-(5-methyl-1,3-thiazol-2-yl)-5-(tetrahydro-2H-pyran-4-ylmethoxy)benzamide], the IC50 (human P2X2/3 receptor) was 385 nM and the IC50 (human P2X3 receptor) was 8 nM.
`Cc1cnc([C@@H](C)NC(=O)c2cc(OCC3CCOCC3)cc(-c3ncc(C)s3)c2)cn1` [Example 94, N-[(1R)-1-(5-Methylpyrazin-2-yl)ethyl]-3-(5-methyl-1,3-thiazol-2-yl)-5-(tetrahydro-2H-pyran-4-ylmethoxy)benzamide] showed an IC50 (human P2X2/3 receptor) of 132 nM and an IC50 (human P2X3 receptor) of 7 nM.
`Cc1cnc(-c2cc(OCC3CCOCC3)cc(C(=O)NC(C)c3ncc(Cl)cc3F)c2)s1` (centres unmarked) [Example 95, N-[1-(5-Chloro-3-fluoropyridin-2-yl)ethyl]-3-(5-methyl-1,3-thiazol-2-yl)-5-(tetrahydro-2H-pyran--4-ylmethoxy)benzamide] showed an IC50 (human P2X2/3 receptor) of 129 nM and an IC50 (human P2X3 receptor) of 2 nM.
For `Cc1cnc(-c2cc(OCC3CCOCC3)cc(C(=O)NC(C)c3ncc(F)cc3Cl)c2)s1` (centres unmarked) [Example 96, N-[1-(3-Chloro-5-fluoropyridin-2-yl)ethyl]-3-(5-methyl-1,3-thiazol-2-yl)-5-(tetrahydro-2H-pyran-4-ylmethoxy)benzamide], the IC50 (human P2X2/3 receptor) was 1080 nM and the IC50 (human P2X3 receptor) was 18 nM.
`Cc1cnc(CNC(=O)c2cc(OCC3CCOCC3)cc(-c3ncc(C)s3)c2)cn1` [Example 97, N-[(5-Methylpyrazin-2-yl)methyl]-3-(5-methyl-1,3-thiazol-2-yl)-5-(tetrahydro-2H-pyran-4-ylmethoxy)benzamide] gave an IC50 (human P2X2/3 receptor) of 1690 nM and an IC50 (human P2X3 receptor) of 15 nM.
